In patent US20140350034A1, “Aminopyridine derivatives as plasma kallikrein inhibitors” (NOVARTIS AG, priority 2012, published 2014):

Biological target: T1, Human plasma kallikrein (Homo sapiens, UniProt P03952)
T1 construct: purchased Kordia (Leiden, Netherlands) batch HPKA 1303
Test: In vitro inhibition of plasma kallikrein (fluorogenic substrate DPro-Phe-Arg-(Rh110)-γGlu-OH)
Type: biochemical
Settings: human plasma kallikrein 12 pM, substrate 0.5 μM, 1 hour pre-incubation at room temperature, read after 1 hour
Method: In Vitro Inhibition of Plasma Kallikrein
The fluorogenic substrate DPro-Phe-Arg-(Rh110)-γGlu-OH (where DPro is the amino acid d-proline, Rh110 is the fluorophore rhodamine 110 and γGlu is a […] linked to Rh110 via the gamma-carbonyl function; from Biosyntan, Berlin, Germany), being based on the chromogenic substrate described in Gallimore et al (Thromb Res 25, 293-298, 1982), was dissolved in DMSO at 5 mM and stored at −80° C. All other chemicals were of analytical grade.
Human plasma kallikrein was purchased from Kordia (Leiden, Netherlands, batch HPKA 1303) in lyophilized form.
The protein solution was reconstituted from the lyophilisate by addition of deinonized water. The resulting stock solution comprised the protein at a concentration of 0.17 mg/ml in 4 mM sodium acetate/HCl and 150 mM NaCl at pH 5.3. The stock solution was stored in aliquots at −80° C.
Enzymatic reactions were conducted in ‘assay buffer’, comprising 50 mM Hepes/NaOH at pH 7.8, 150 mM NaCl, 1 mM EDTA and 0.05% (w/v) CHAPS.
Both, enzyme and substrate were diluted in assay buffer.
All protein and peptide containing solutions were handled in siliconized tubes (Life Systems Design, Merenschwand, Switzerland). The compound solutions as well as the enzyme and the substrate solutions were transferred to 384-well plates (black Cliniplate; cat. no. 95040020 Labsystems Oy, Finland) by means of a CyBi-Well 96-channel pipettor (CyBio AG, Jena, Germany). Plate measurements were conducted by the means of a Safire2 reader (TECAN, Maennedorf, Switzerland). The Safire2 is a monochomator-based instrument and wavelengths of 485 nm and 535 nm were taken for fluorescence excitation and emission acquisition, respectively. The bandwidths were set to 10 nm in both the excitation and the emission path. The fluorescence in each well was excited by three flashes per measurement.
Determination of IC50 Values
For the determination of IC50 values, the assays were performed at room temperature in 384-well plates with a total assay volume of 25.25 μl per well.
The test compound was dissolved in 90% (v/v) DMSO/water. For the assays, 250 nL of the 90% (v/v) DMSO/water solution or compound solution were added per well, followed by the addition of 12.5 μl protease solution (protease in assay buffer). The final assay concentration of the human plasma kallikrein was nominally 12 pM, the 11 compound concentrations in the dilution series were in the range form 1 nM to 100 μM. After 1 hour of pre-incubation at room temperature, the reactions were started by the addition of 12.5 μl substrate solution (in assay buffer, final assay concentration was 0.5 μM). After the addition of the substrate solution, the final DMSO concentration in the assay was 0.9% (v/v). The effect of the compound on the enzymatic activity was obtained from the linear part of the progress curves and determined after 1 hour (t=60 min). The IC50 value was calculated from the plot of percentage of inhibition vs. inhibitor concentration by a logistics fit according to the following equation:
where y is the %-inhibition at the inhibitor concentration, x. A1 is the lowest inhibition value, i.e. 0%, and A2 the maximum inhibition value, i.e. 100%. The exponent, p, is the Hill coefficient. The curve fitting was conducted with the non-linear regression routine of the analysis software Origin 7.5SR6 (Origin Lab Corporation).

T1 sequence (P03952 391-638 limits assumed): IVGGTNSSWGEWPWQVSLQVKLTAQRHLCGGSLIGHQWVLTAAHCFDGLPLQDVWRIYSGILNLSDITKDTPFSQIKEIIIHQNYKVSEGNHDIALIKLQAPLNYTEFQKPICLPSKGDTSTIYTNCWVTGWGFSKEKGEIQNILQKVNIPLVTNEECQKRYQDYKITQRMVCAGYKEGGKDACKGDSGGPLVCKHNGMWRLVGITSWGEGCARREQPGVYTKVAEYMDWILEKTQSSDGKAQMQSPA
T1 sequence (P03952 20-390 partner limits assumed): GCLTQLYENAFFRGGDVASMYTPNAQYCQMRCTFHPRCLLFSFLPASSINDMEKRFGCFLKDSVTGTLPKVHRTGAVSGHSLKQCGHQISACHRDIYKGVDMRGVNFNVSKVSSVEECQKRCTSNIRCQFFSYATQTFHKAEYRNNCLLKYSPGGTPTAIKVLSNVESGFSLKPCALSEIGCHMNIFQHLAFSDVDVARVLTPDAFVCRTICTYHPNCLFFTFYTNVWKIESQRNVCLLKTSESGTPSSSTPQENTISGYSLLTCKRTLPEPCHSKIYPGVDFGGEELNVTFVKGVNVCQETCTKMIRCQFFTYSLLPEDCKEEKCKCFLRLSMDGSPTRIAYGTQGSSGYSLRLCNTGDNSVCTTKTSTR

IC50	Compound
4.73 µM	Cc1cc(N)nc(C)c1CNC(=O)c1cc2ccccc2o1 [Example 2, N-((6-amino-2,4-dimethylpyridin-3-yl)methyl)benzofuran-2-carboxamide]
5.39 µM	Cc1cc(N)nc(C)c1CNC(=O)c1cc2ccccc2s1 [Example 3, N-((6-amino-2,4-dimethylpyridin-3-yl)methyl)benzo[b]thiophene-2-carboxamide]
2.32 µM	Cc1cc(N)nc(C)c1CNC(=O)c1ccc2ccccc2c1 [Example 6, N-((6-amino-2,4-dimethylpyridin-3-yl)methyl)-2-naphthamide]
1.63 µM	Cc1cc(N)nc(C)c1CNc1ncc2ccn(Cc3ccc4ccccc4c3)c2n1 [Example 7, N-((6-amino-2,4-dimethylpyridin-3-yl)methyl)-7-(naphthalen-2-ylmethyl)-7H-pyrrolo[2,3-d]pyrimidin-2-amine]
3.81 µM	Cc1cc(N)nc(C)c1CNC(=O)c1cc2ccccc2[nH]1 [Example 5, N-((6-amino-2,4-dimethylpyridin-3-yl)methyl)-1H-indole-2-carboxamide]

Further lines, the compound ahead of its results:

Compound	IC50
CCc1cc2c(NCc3c(C)cc(N)nc3C)ncnc2s1 [Example 1, N-((6-amino-2,4-dimethylpyridin-3-yl)methyl)-6-ethylthieno[2,3-d]pyrimidin-4-amine]	27.1 µM
Cc1cc(N)nc(C)c1CNc1ncnc2oc(Cc3c(Cl)cccc3Cl)nc12 [Example 4, N-((6-amino-2,4-dimethylpyridin-3-yl)methyl)-2-(2,6-dichlorobenzyl) oxazolo[5,4-d]pyrimidin-7-amine]	1.78 µM

Same assay, conditions: the above-described assay (human plasma kallikrein)

IC50	Compound
> 30 µM	Cc1cc(N)nc(C)c1CNc1ncnc2c1ccn2C [N-((6-amino-2,4-dimethyl-pyridin-3-yl)-methyl)-9-methyl-2,4,9-triaza-bicyclo[4.3.0]nona-1(6),2,4,7-tetraen-5-amine]
> 30 µM	COc1cc2ncnc(NCc3c(C)cc(N)nc3C)c2cc1OC [N-((6-amino-2,4-dimethyl-pyridin-3-yl)-methyl)-8,9-dimethoxy-2,4-diaza-bicyclo[4.4.0]deca-1(6),2,4,7,9-pentaen-5-amine]
